Substitutions are numbered along the chain they refer to. Where a SMILES comes first, the peptide text is derived from it. The star is where a group is joined. Cbz = O=C(OCc1ccccc1)*; CH2F = FC*
Key:
Caspase 3 = Caspase 3 protease activity in Colo-205 cell lysates (DEVD-pNA); format: cell-based, human
Procedure: (§1) In certain assays, cells are pre-treated with 20 uM of the pan-caspase inhibitor, ZVAD-fmk (RnD Systems), 1 hr prior to stimulation with TRAIL or control agents.

Caspase 8 = Caspase 8 protease activity in Colo-205 cell lysates (IETD-pNA); format: cell-based, human
Procedure: as §1

Colo-205 cells [1] = assay: DNA fragmentation (apoptosis) ELISA in Colo-205 cells; format: cell-based, human
From the text: Apoptosis, e.g. […]
DNA fragmentation is quantitated by a photometric enzyme-immunoassay (Cell Death Detection ELISA Assay, Roche) for measuring cytoplasmic histone-associated nucleosomes according to the manufacturer's protocols. % Apoptosis is defined as relative increase in DNA fragmentation in treated vs. control cells calculated by [O.D. Treated−background]/[Maximal O.D.−Background].

human tumor cell lines = assay: Sensitivity of tumor cell lines to TRAIL, WST-8 cytotoxicity assay; format: cell-based; details: human tumor cell lines from diverse tissues; 24 hr; FIG. 14
Procedure: Briefly, 1e4 tumor cells (ATCC), or normal primary cells (BioWhittaker), are seeded in one well of a 96-well titer plate and incubated overnight at 37° C. Cells are then treated with the test or control agents for 24, 48 or 72 hr. Following treatment, cell viability is evaluated using a tetrazolium-salt (WST-8) based proliferation assay (Cell Counting Kit-8, Dojindo Laboratories, Japan) according to the manufacturer's recommendations. % Cytotoxicity/Growth inhibition is defined as [1-(OD treated−background)/(OD untreated−background)×100].
(§2) The specificity of TRAIL-induced cell death was tested in a variety of tumor and normal cells. […] The combinatorial cytotoxic effects of TRAIL and chemotherapy were tested in a panel of tumor cells.

[2] = system: A549 lung carcinoma, U87MG glioma, MCF7 breast carcinoma, PC-3 prostate carcinoma; assay: Chemosensitization of tumor cells to TRAIL; format: cell-based, human; details: A549+cisplatin, U87MG+etoposide, MCF-7+doxorubicin, PC-3+doxorubicin; 24 hr pre-treatment with sub-toxic doses, then 24 hr TRAIL
Procedure: FIGS. 16A–D show augmentation of sTRAIL-induced tumor cell cytotoxicity by chemotherapy sensitization 1 e4 tumor cells were pretreated with genotoxic agents for 24 hr to sensitize, then subsequently treated with sTRAIL for 24 hr. Viability was measured by WST-8 tetrazolium salt assay after 24 hr sTRAIL treatment and % Growth inhibition=[1-(OD treated−background)/(OD untreated−background)×100].
(§3) Tumor cells are plated at 1e4 cells per well in 96-well plates and incubated overnight at 37 C after which time the cells are left untreated or treated with the indicated sub-toxic doses of chemotherapeutic agents. After 24 hr, the cells are left untreated, or treated with sub-toxic doses of recombinant human TRAIL or AAV-produced TRAIL for an additional 24, 48 or 72 hr. Cell viability is evaluated using a tetrazolium-salt (WST-8) based proliferation assay (Cell Counting Kit-8, Dojindo Laboratories, Japan) according to the manufacturer's recommendations. % Cytotoxicity/Growth Inhibition was defined as [1-(OD treated−background)/(OD untreated−background)×100].
as §2

Colo-205 cells [3] = assay: Colo-205 growth inhibition/viability, WST-8 tetrazolium assay; format: cell-based, human; details: 24, 48 and 72 hr treatment, FIG. 10B/10C
Procedure: Cell proliferation was evaluated using a WST-8-based tetrazolium salt viability assay using the formulas: % Viability=[OD (sTRAIL) treated−background]/[OD (GFP) untreated−background]×100 and % Growth Inhibition=[1-(OD treated−background)/OD untreated−background)]×100.

[4] = system: HT29 colorectal tumor cells; assay: Chemosensitization of HT29 colon cancer cells to TRAIL; format: cell-based, human
Procedure: FIGS. 17A–C show augmentation of sTRAIL-induced HT29 colon cancer cytotoxicity by chemotherapy sensitization.
as §3, §2

[5] = system: colorectal tumor cell lines (HT29, HCT-116, Colo-205); assay: Combination of sTRAIL and COX inhibitors in colorectal tumor cell lines; format: cell-based, human; details: combined with high doses of SC-560 and Celebrex
Procedure: as §2

[6] = system: VEGF induced vessel sprouting; assay: Chick chorioallantoic membrane (CAM) assay; format: in vivo; details: 25 ng VEGF with 0.1, 1 and 10 ng protein from conditioned media; 72 hr
Procedure: FIG. 4 illustrates the results of experiments that show PF4 and PF4(DLR) reduce VEGF stimulated angiogenesis in the chick chorioallantoic membrane (CAM) assay. Hyrdocortisone-containing filter disks were soaked with 25 ng of VEGF together with 0.1 ng, 1 ng and 10 ng of PF-4 or PF-4(DLR) derived from conditioned media. AAV-null, 293 cell supernatant and an internal PF-4 protein standard, PF4-Blast, were included in the assay as separate controls. Filter disks were aseptically placed on top of the chorioallantoic membranes of 11 day chick embryos. 72 hours after incubation the CAMs were surgically removed, fixed and the number of vessel sprouts determined by stereomicroscopy.
Hydrocortisone-containing filter discs are soaked with 25 ng Vascular Endothelium Growth Factor (VEGF) (R&D Systems, Minneapolis, Minn.) together with the indicated doses of conditioned media from control or vector transduced cells, and aseptically placed on top of the chorioallantoic membranes of 11 day old chick embryos. After 72 hr incubation, the CAMs are surgically removed, fixed and the discs are analyzed for VEGF-induced angiogenesis by stereomicroscopy. The mean number (+/−SEM) of branch points occurring in the new blood vessel sprouts beneath the applied filter disc from the treated CAMs is enumerated from multiple (n=8–10) samples. […]

[7] = Colo-205 cells pre-incubated with 20 uM inhibitor
[8] = Colo-205 cells, 4 hr incubation

Molecule: COC(=O)C[C@H](NC(=O)[C@H](C)NC(=O)[C@@H](NC(=O)OCc1ccccc1)C(C)C)C(=O)CF [ZVAD-fmk] (Cbz-Val-Ala-Asp(OMe)-CH2F)
- Effect on TRAIL-induced caspase 3 protease activity (Caspase 3; [7]): blocking of TRAIL-induced caspase protease activity
- Effect on TRAIL-induced caspase 8 protease activity (Caspase 8; [7]): blocking of TRAIL-induced caspase protease activity
- Effect on sTRAIL induced DNA fragmentation (Colo-205 cells [1]; Colo-205 cells pre-incubated with increasing amounts of inhibitor, 6 hr after sTRAIL treatment): prevents sTRAIL induced DNA fragmentation in a dose-dependent manner

Molecule: recombinant human TRAIL: recombinant human TRAIL purchased from a commercial vendor (RnD Systems)
- Induction of caspase 3 protease activity (Caspase 3; [8]): Dose-dependent induction
- Induction of caspase 8 protease activity (Caspase 8; [8]): Dose-dependent induction
- Cytotoxicity in tumor cell lines (human tumor cell lines): cytotoxicity was observed in a wide spectrum of human tumor cell lines
- Cytotoxic effect combined with chemotherapy [2]: augmented cytotoxic effect
- 50% effective dose (ED50) for induction of apoptosis (DNA fragmentation) (Colo-205 cells [1]; Colo-205 cells, 6 hr incubation (sTRAIL 6, 16 and 24 hr), FIG. 11): approximately 1 ng/ml
- 50% effective dose of Colo-205 growth inhibition (Colo-205 cells [3]): approximately 0.5 ng/ml

Molecule: TRAIL
- Cytotoxic effect combined with chemotherapy ([4]; combined with sub-toxic doses of doxorubicin, cisplatin, or camptothecin): synergistic cytotoxic effect
- Cell death with TRAIL alone ([4]; sub-optimal doses of TRAIL): refractory to cell death
- Cytotoxic activity combined with cyclo-oxygenase-2 inhibitors [5]: synergistic cytotoxic activity

B1: PF-4: platelet factor-4 from conditioned media of transfected 293 cells (SEQ ID NO:7) (protein)
chain: MSSAAGFCASRPGLLFLGLLLLPLVVAFASAEAEEDGDLQCLCVKTTSQVRPRHITSLEVIKAGPHCPTAQLIATLKNGRKICLDLQAPLYKKIIKKLLES
modifications: platelet factor-4
- VEGF induced vessel sprouting [6]: blockage of VEGF induced vessel sprouting

B2: PF-4(DLR): platelet factor-4 with the DLR mutation (SEQ ID NO:9) from conditioned media (protein)
chain: B1 chain with Q87R
modifications: platelet factor-4 with DLR mutation
- VEGF induced vessel sprouting [6]: blockage of VEGF induced vessel sprouting
